According to patent EP2488183B1, “Composition for inhibiting TGF-beta comprising imidazopurine derivatives” (Korea Institute of Radiological & Medical Sciences, priority 2009, dated 2011):

What was measured:
IMR-90 cells [1] = test: Western blotting of fibrosis markers in irradiated lung fibrocytes; assay type: cell-based, human; conditions: IMR-90, 10 µM, 2 h before 4 Gy radiation, 48 h; FIG. 7c
Procedure: (§1) In order to identify whether compound I inhibits radiation-induced fibrosis, instead of external stimulation by TGF-β radiation that can internally engogenously increase TGF-β was employed to induce fibrosis. IMR-90 cells were incubated as described in (1) above and the IMR-90 cells were inoculated to a 6 cm plate containing a modified Eagle's medium (MEM) supplemented with 10% FBS serum, 100 units/ml of penicillin, and 100 µg/ml of streptomycin, 1 mM sodium pyruvate, and 0.1 mM non-essential amino acids. Then, compound I at a concentration of 10 µM was added thereto and the IMR-90 cells were incubated for 2 hours, and then, 4 Gy radiation was applied thereto. 48 hours later, the IMR-90 cells were collected. Then, fibrosis makers as described in Example 2 were identified from the IMR-90 cells by western blotting.

H1299 = test: Apoptosis of lung cancer cells alone or with doxorubicin, CCK-8 viability assay; assay type: cell-based; conditions: 48 h; for apoptosis effect together with doxorubicin: H1299, compound added 2 h before doxorubicin 0.05 µM; for apoptosis: H1299, compound alone at 5 µM or more, FIGS. 9a, 9c
Procedure: TGF-βis known to have contrasting effects related to a tumor. That is, at an initial stage, TGF-β suppresses tumor growth, but at a latter stage, promotes metastasis or infiltration of a tumor. Thus, apoptosis of tumor cell lines caused by compound I and II, and apoptosis of tumor cell lines caused by compound I or II in combination with doxorubicin, an anti-cancer agent, were measured. […] The tumor cells were treated with compound I or II at the concentrations shown in FIG. 9, and 2 hours later, doxorubicin was added thereto. Then, the cells were incubated for 48 hours under the conditions described above and then, quantified using a CCK-8 viability assay kit (Dojindo, Japan).

IMR-90 cells [2] = test: Western blotting of fibrosis markers in TGF-β-treated lung fibrocytes; assay type: cell-based, human; conditions: IMR-90, 0, 1, 5 and 10 µM added 2 h before TGF-β (5 ng/ml), 24 h; FIG. 7a
Procedure: (§2) IMR-90 cells, human normal lung fibrocytes, were purchased from American Type Culture Collection (ATCC, U.S.A.), and were incubated under 5% CO2 and at a temperature of 37°C for 24 hours in a modified Eagle's medium (MEM) supplemented with 10% FBS serum, 100 units/ml of penicillin, and 100 µg/ml of streptomycin, 1 mM sodium pyruvate, and 0.1 mM non-essential amino acids. Then, two hours before treatment with TGF-β (5ng/ml), compound I was added to the cell culture at a varying concentration (0, 1, 5 and 10 µM) and then, the IMR-90 cells were incubated for 24 hours. Then, as described in Example 2, western blotting was performed to identify inhibition of differentiation of lung fibrocytes by compound I based on expression levels of α-SMA and fibronectin, which are fibrosis marker molecules. […] Also, in extracellular matrix, the amount of collagen, which is one of important materials regarding fibrosis, was measured according to the specification of the manufacturer by using a collagen Sircol assay kit (Biocolor, England).

RAW 264.7 cell = test: RT-PCR of pro-inflammatory cytokine and iNOS mRNA in macrophages stimulated by LPS; assay type: cell-based, mouse; conditions: RAW 264.7, compound 2 h before 1 µg/ml LPS, 6 h; FIG. 8
Procedure: A macrophage is a front-line immune cell that is responsible for an initial immune response to various antigens and causes a strong inflammation reaction. RAW 264.7 cell, a mouse macrophage strain, was purchased from American Type Culture Collection (ATCC, U.S.A.), and incubated under 5% CO2 and at a temperature of 37°C in a Dulbecco's modified Eagle's medium (DMEM) supplemented with 10% FBS serum, 100 units/ml of penicillin, and 100 µg/ml of streptomycin. […] of compound I or II was added to the incubated cells and then, two hours later, the cells were treated with 1 µg/ml lipopolysaccharide (LPS), which is a cell wall component of a gram negative bacteria and incubated further for 6 hours. Then, the cells were collected and the total RNA thereof was isolated using TRIzol and quantified. Out of the total RNA, 1 µg of RNA was used to synthesize cDNA using a reverse transcriptase. Then, a polymerase chain reaction (PCR) was performed using the cDNA as a template to identify expression levels of cytokines. In detail, PCR was performed in the presence of a DNA polymerase using the cDNA as a template to amplify IL-1β, IL-6, and TNF-α which are pro-inflammatory cytokines, iNOS, nitric oxide synthase, and β-actin used as a control group with a cycle consisting of 30 seconds at a temperature of 94°C, 45 seconds at a temperature of 55°C, and 45 seconds at a temperature of 72°C repeated 30 times. Primers set forth in SEQ ID. NOs: 1 through 10 shown in Table 1 were used to amplify IL-1β, IL-6, TNF-α, iNOS and β-actin, respectively. Table 1 [Table 1]
The amplification product of PCR was subjected to electrophoresis on 1% agarose gel in which ethidium bromide (dye) was present so as to measure mRNA expression levels of the cytokines. FIGS. 8a and 8b show changes in the amounts of the pro-inflammatory cytokines caused by compounds I and II, respectively.

IMR-90 cells [3] = test: Collagen Sircol assay in TGF-β-treated lung fibrocytes; assay type: cell-based, human; conditions: IMR-90, TGF-β (5 ng/ml), 0, 1, 5 and 10 µM; FIG. 7b
Procedure: as §2

IMR-90 cells [4] = test: Collagen amount in irradiated lung fibrocytes; assay type: cell-based, human; conditions: IMR-90, 10 µM, 2 h before 4 Gy radiation, 48 h; FIG. 7d
Procedure: as §1

Cc1cn2c(nc3c2c(=O)n(Cc2ccccc2Cl)c(=O)n3C)[nH]1 [compound I, 3-(2-chlorobenzyl)-1,7-dimethyl-1H-imidazo[2,1-f]purine-2,4(3H,8H)-dion]
expressions of α-SMA and fibronectin (IMR-90 cells [1]): significantly reduced
apoptosis effect together with doxorubicin (H1299): additive or synergistic apoptosis effects
apoptosis (H1299): apoptosis occurred
fibrosis in human lung fibrocytes (expression levels of α-SMA and fibronectin) (IMR-90 cells [2]): concentration-dependently decreased fibrosis
IL-1 mRNA expression (RAW 264.7 cell): significantly inhibited
expression of TNF-α (RAW 264.7 cell): slightly reduced
iNOS mRNA expression (RAW 264.7 cell): significantly inhibited
amount of collagen (IMR-90 cells [3]): concentration-dependently reduced the amount of collagen
amount of collagen (IMR-90 cells [4]): reduced to a level similar to that in the no-treatment control group

Cc1[nH]c2nc3c(c(=O)n(Cc4c(F)cccc4Cl)c(=O)n3C)n2c1C [compound II, 3-(2-chloro-6-fluorobenzyl)-1,6,7-trimethyl-1H-imidazo[2,1-f]purine-2,4(3H,8H)-dion]
apoptosis effect together with doxorubicin (H1299): additive or synergistic apoptosis effects
apoptosis (H1299): apoptosis occurred
IL-6 mRNA expression (RAW 264.7 cell): distinctively reduced
expression of TNF-α (RAW 264.7 cell): slightly reduced
iNOS mRNA expression (RAW 264.7 cell): distinctively reduced
